# According to patent publication EP2698385A1, “Detection of synthetic cannabinoids” (priority 2012, dated 2014):
# Columns and labels:
# Assay type in all cases: binding, sheep
# Antibody to Immunogen I = details: Cross-reactants at 100 ng/ml; Antibody to Immunogen I
# Method in brief: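 Sheep anti-Immunogen I IgG coated on plates, then JWH-018 standards (0–40 ng/ml) competed with hapten-HRP conjugate for 1 h at 25°C. TMB read-out at 450 nm, 4-parameter fit. IC50 is the standard concentration giving 50% B/B0; cross-reactivity of related cannabinoids taken from the calibration curves.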
# Antibody to Immunogen II = assay: Competitive ELISA (Example 36), antibody RS1833B12, tracer ESC4555/LK959, standard JWH-018; details: Cross-reactants at 100 ng/ml; Antibody to Immunogen II
# Experimental: An aqueous solution of each immunogen was formulated with Freund's Complete Adjuvant (FCA) to form an emulsion consisting of 2mg/ml* immunogen in 50% (v/v) FCA. Three sheep were immunised with this emulsion (1° immunisation), 0.25ml being intramuscularly injected at each of four sites in the flank of each animal. Subsequent immunizations (boosts) contained 1mg/ml* immunogen. All boosts were emulsified in 50% (v/v) Freund's Incomplete Adjuvant (FIA) and were administered in the same manner as the 1° immunisation, at monthly intervals. Blood sampling took place 7 to 14 days after each boost. *The general procedure for immunogen administration is outlined above, however, it was necessary to deviate from this protocol in some cases, due to reduced immunogen concentrations (Immunogens II, IV, VII and VIII) and/or amount available (Immunogen VIII). Any deviations from the protocol described are outlined in Table 1A below and highlighted in bold. Table 1A: Amount and volume of immunogens administered for primary and subsequent boosts
# The appropriate antibody coating dilution was determined using standard ELISA checkerboard techniques. The plate was incubated overnight at 4°C, washed 4 times over 10 minutes with Tris buffered saline containing Tween 20 (TBST) and tapped dry. […] 75µl of conjugate (appropriate hapten-HRP) diluted in Tris buffer (pH 7.2) containing EDTA, D-mannitol, sucrose, thimerosal and BSA, was added to each of the wells. The appropriate dilution of conjugate was also determined using standard ELISA checkerboard techniques. The plate was incubated at 25°C for 1 hour. Excess unbound conjugate was removed by washing 6 times over a 10 minute period with TBST. 125µl of tetramethylbenzidine (TMB) substrate solution was added to each well of the plate that was then incubated for 20 minutes in the dark at room temperature. The reaction was terminated by addition of 125µl 0.2M H2SO4 to each well. The absorbance was then measured at 450nm using a microtiter plate reader. The data are inputted to a computer program called 'KC Junior'. It is a 4 parameter fit curve and allow the calculatation of concentrations between the standard runs.
# In a similar manner to that described above, the wells of a 96-well microtiter plate were coated with the IgG fraction of the antiserum raised to Immunogens I or II.
# The data set our in Tables 3 and 4 are generated using antibodies raised against the indicated Immunogens in a competitive binding assay with the indicated tracers, using the indicated standards: Table 2
# Using the calibration curves generated and employing a single level of cross reactants, these were used to determine the cross-reactivity of each immunoassay with these substances. These are the standards used for the IC50 and cross-reactivity data generation • Immunogen I - JWH-018 • Immunogen II - JWH-018 • Immunogen IV - JWH-018 • Immunogen VII - JWH-015 • Immunogen VIII - JWH-018 Table 4: Cross reactivity of the competitive ELISAs for synthetic cannabinoids and their metabolites
# [1] = system: Antibody to Immunogen VII; details: Cross-reactants at 100 ng/ml; Antibody to Immunogen VII
# [2] = system: Antibody to Immunogen VIII; details: Cross-reactants at 100 ng/ml; Antibody to Immunogen VIII
# Antibody to Immunogen IV = details: Cross-reactants at 100 ng/ml; Antibody to Immunogen IV
Compound,%B/B0 (Antibody to Immunogen I),%B/B0 (Antibody to Immunogen II),%B/B0 [1],%B/B0 [2],%B/B0 (Antibody to Immunogen IV)
CCCCCn1cc(C(=O)c2cccc3ccccc23)c2ccc(OC)cc21 [JWH-018 6-methoxyindole analogue],10.55%,20.44%,72.33%,77.22%,90.65%
CCCCCn1cc(C(=O)c2cccc3ccccc23)c2cccc(O)c21 [JWH-018 7-hydroxyindole metabolite],6.72%,34.79%,68.53%,94.46%,93.31%
"CC(C)(C)Cn1cc(C(=O)c2cccc3ccccc23)c2ccccc21 [JWH-018 N-(2,2-dimethylpropyl) isomer]",3.89%,60.15%,52.46%,95.09%,80.42%
CCCCCCn1cc(C(=O)c2cccc3ccccc23)c2ccccc21 [JWH-019],7.22%,15.42%,70.05%,74.50%,21.96%
CCCCCCCn1cc(C(=O)c2cccc3ccccc23)c2ccccc21 [JWH-020],16.03%,35.75%,81.30%,100.73%,73.73%
C=CCCCn1cc(C(=O)c2cccc3ccccc23)c2ccccc21 [JWH-022],4.51%,11.72%,58.44%,28.94%,10.61%
CCCCn1cc(C(=O)c2cccc3ccccc23)c2c(O)cccc21 [JWH-073 4-hydroxyindole metabolite],39.50%,40.14%,82.82%,26.23%,28.69%
CCCCn1cc(C(=O)c2cccc3ccccc23)c2cc(O)ccc21 [JWH-073 5-hydroxyindole metabolite],7.34%,20.73%,75.11%,90.70%,84.06%
CCCCn1cc(C(=O)c2cccc3ccccc23)c2ccc(O)cc21 [JWH-073 6-hydroxyindole metabolite],5.93%,28.03%,61.83%,93.52%,74.89%
CCCCn1cc(C(=O)c2cccc3ccccc23)c2cccc(O)c21 [JWH-073 7-hydroxyindole metabolite],5.59%,46.05%,61.78%,94.04%,96.95%
CC(O)CCn1cc(C(=O)c2cccc3ccccc23)c2ccccc21 (stereo not shown) [JWH-073 N-(3-hydroxybutyl) metabolite],3.10%,54.52%,43.39%,94.04%,53.52%
